Results as given in patent US20240051952A1, “HMOX1 INDUCERS” (Mitobridge Inc., priority 2019, published 2024).

Test system: Human Heme Oxygenase-1 (HMOX-1)
Assay: ELISA assay to measure human heme oxygenase-1 (HMOX-1) in HepG2 lysate
Assay type: cell-based
Details: for Maximum Fold induction: fold change of human HMOX1 protein levels relative to DMSO control, HepG2
Procedure: Example 143. ELISA Assay to Measure Human Heme Oxygenase-1 (HMOX-1) in HepG2 lysate
Reagents and Technical Notes:
ELISA capture antibody, standard HO-1, detection antibody and streptavidin HRP were supplied in the DuoSet IC Human total HO-1 ELISA from R&D systems (DYC3776-2). The substrate cocktail was KPL LumiGLO reserve Chemiluminescent Substrate (54-71-00). PBS was Corning Cellgro Cell Culture (21-040-CV). 10×PBS+0.05% tween20 (PBST) was from KPL.
All incubations of the plate were at room temperature (20° C.) in a closed drawer.
The ELISA plate was processed manually. All loadings were with a multichannel pipet. Plates were emptied by shaking into the sink and tapping onto paper towels to remove any remaining reagent. Plate washing was accomplished by loading all wells with PBS+0.05% tween20 (PBST) using a squirt bottle, shaking the PBST out and tapping the plate onto paper towels.
Preparation of the ELISA Plate: • 1. anti-HO-1 capture antibody was 1440 μg/ml after reconstitution in PBS. This antibody was diluted to 8 μg/ml in PBS and 50 μl per well was added to a 384 well greiner “lumitrac 200” plate. Incubated overnight. • 2. The plate was emptied and 100 μl PBS+1% BSA added to all wells. Incubated 90 minutes at room temperature.
Preparation of HepG2 Lysate: • 1. Cells were cultured in a 96-well tissue culture plate washed with PBS and then the plate frozen at −70° C. overnight. Plates were allowed to warm to ice temperature in an ice bucket. 20 μl of PBS, 0.5% Triton X100, 1 mM EDTA with 1×HALT™ protease inhibitors was added to each well and the plates incubated on ice for 1 hour. • 2. The lysates were frozen at −20° C. overnight.
Measurement of HMOX1 (“HO-1”) • 1. In a polypropylene 384 well plate, human HO-1(after reconstitution in PBS+0.5% Triton+1 mM EDTA) was serially diluted from 20 ng/ml 2-fold in PBS+0.5% triton-X100, 1 mM EDTA to make a 12-point standard curve including a zero point. • 2. In a polypropylene 96 well plate, HepG2 lysate was diluted 1 to 20 in Diluent #4 from DUOSET kit in which the assay standard is also diluted. • 3. The PBS+1% BSA was emptied from the ELISA plate and 30 μl of all samples and standards were added (duplicates recommended). The plate was incubated 90 minutes. • 4. Emptied plate and washed 4 times with PBST. • 5. Diluted HO-1 detection antibody to 200 ng/ml in PBS+1% BSA and added 30 μl to all wells. Incubated 90 minutes. • 6. Emptied plate and washed 4 times with PBST. • 7. Added 30 μl streptavidin HRP at 1/200 in PBS+1% BSA (stock streptavidin concentration not specified) to all wells. Incubated 30 minutes. • 8. Emptied plate and washed 4 times with PBST. • 9. Diluted Lumiglo reserve reagent two parts buffer to one part lumiglo substrate. Added 30 μl to all wells. Incubated 5 minutes. • 10. Measured chemiluminescence on spectramax M5 using 150 ms integration.
Table 1 below lists EC50 and fold changes of human HMOX1 protein levels relative to DMSO control upon treatment with representative compounds.

Maximum Fold induction	EC50 (human HMOX1 protein in HepG2 lysate, ELISA, * = average of 2 or more EC50 determinations, NA = Not Active)	SMILES
25-53	–	CC(C)C(N)C(=O)OCCOCCNC(=O)c1ccc2c(c1)nc(Nc1nc3ccccc3o1)n2C.Cl (racemic) [Example 30, 2-(2-(2-(benzo[d]oxazol-2-ylamino)-1-methyl-1H-benzo[d]imidazole-5-carboxamido)ethoxy)ethyl DL-valinate hydrochloride]
7-38	–	Cn1c(Nc2nc3ccccc3o2)nc2cc(C(=O)O)ccc21 [Example 1h, 2-(benzo[d]oxazol-2-ylamino)-1-methyl-1H-benzo[d]imidazole-5-carboxylic acid]
6-15	–	COCCNC(=O)c1ccc2c(c1)nc(Nc1nc3ccccc3o1)n2C [Example 1i, 2-(benzo[d]oxazol-2-ylamino)-N-(2-methoxyethyl)-1-methyl-1H-benzo[d]imidazole-5-carboxamide]
10 (n = 2)	–	O=C(O)c1ccc2c(c1)nc(Nc1nc3ccc(OC(F)(F)F)cc3s1)n2C1CCOCC1 [Example 2d, 1-(tetrahydro-2H-pyran-4-yl)-2-((6-(trifluoromethoxy)benzo[d]thiazol-2-yl)amino)-1H-benzo[d]imidazole-5-carboxylic acid]
20-33	–	COCCNC(=O)c1ccc2c(c1)nc(Nc1nc3ccc(OC(F)(F)F)cc3s1)n2C1CCOCC1 [Example 2e, N-(2-methoxyethyl)-1-(tetrahydro-2H-pyran-4-yl)-2-((6-(trifluoromethoxy)benzo[d]thiazol-2-yl)amino)-1H-benzo[d]imidazole-5-carboxamide]
13	–	CN1CCC(n2c(Nc3nc4ccc(OC(F)(F)F)cc4s3)nc3cc(C(=O)O)ccc32)CC1 [Example 3d, 1-(1-methylpiperidin-4-yl)-2-((6-(trifluoromethoxy)benzo[d]thiazol-2-yl)amino)-1H-benzo[d]imidazole-5-carboxylic acid]
6-46	–	COCCNC(=O)c1ccc2c(c1)nc(Nc1nc3ccc(OC(F)(F)F)cc3s1)n2C1CCN(C)CC1 [Example 3e, N-(2-methoxyethyl)-1-(1-methylpiperidin-4-yl)-2-((6-(trifluoromethoxy)benzo[d]thiazol-2-yl)amino)-1H-benzo[d]imidazole-5-carboxamide]
29-33	–	CN1CCC(n2c(Nc3nc4ccc(OC(F)(F)F)cc4s3)nc3cc(C(=O)O)ccc32)C1 (centres unmarked) [Example 4d, 1-(1-methylpyrrolidin-3-yl)-2-((6-(trifluoromethoxy)benzo[d]thiazol-2-yl)amino)-1H-benzo[d]imidazole-5-carboxylic acid]
19	–	COCCNC(=O)c1ccc2c(c1)nc(Nc1nc3ccc(OC(F)(F)F)cc3s1)n2C1CCN(C)C1 (centres unmarked) [Example 4e, N-(2-methoxyethyl)-1-(1-methylpyrrolidin-3-yl)-2-((6-(trifluoromethoxy)benzo[d]thiazol-2-yl)amino)-1H-benzo[d]imidazole-5-carboxamide]
7-12	1300 nM	COCCNC(=O)c1ccc2c(c1)nc(Nc1nc3c(s1)CCCC3)n2C [Example 5, N-(2-methoxyethyl)-1-methyl-2-((4,5,6,7-tetrahydrobenzo[d]thiazol-2-yl)amino)-1H-benzo[d]imidazole-5-carboxamide]
2	–	CC(=O)N1CCc2nc(Nc3nc4cc(C(=O)NCCOCCO)ccc4n3C)sc2C1 [Example 10, 2-((5-acetyl-4,5,6,7-tetrahydrothiazolo[5,4-c]pyridin-2-yl)amino)-N-(2-(2-hydroxyethoxy)ethyl)-1-methyl-1H-benzo[d]imidazole-5-carboxamide]
5	–	COCCNC(=O)c1ccc2c(c1)nc(Nc1nc3c(s1)COCC3)n2C [Example 11, 2-((6,7-dihydro-4H-pyrano[4,3-d]thiazol-2-yl)amino)-N-(2-methoxyethyl)-1-methyl-1H-benzo[d]imidazole-5-carboxamide]
5.5	–	COCCNC(=O)c1ccc2c(c1)nc(Nc1nc3ccccc3[nH]1)n2C [Example 12, 2-((1H-benzo[d]imidazol-2-yl)amino)-N-(2-methoxyethyl)-1-methyl-1H-benzo[d]imidazole-5-carboxamide]
6-25	–	COCCNC(=O)c1ccc2c(c1)nc(Nc1nc3cc(OC(F)(F)F)ccc3[nH]1)n2C [Example 14, N-(2-methoxyethyl)-1-methyl-2-((5-(trifluoromethoxy)-1H-benzo[d]imidazol-2-yl)amino)-1H-benzo[d]imidazole-5-carboxamide]
11-13	–	Cn1c(Nc2nc3cc(C(=O)O)ccc3n2C)nc2cc(OC(F)(F)F)ccc21 [Example 15, 1-methyl-2-((1-methyl-5-(trifluoromethoxy)-1H-benzo[d]imidazol-2-yl)amino)-1H-benzo[d]imidazole-5-carboxylic acid]
8-27	–	Cn1c(Nc2nc3ccccc3o2)nc2cc(C(=O)NCCO)ccc21 [Example 16, 2-(benzo[d]oxazol-2-ylamino)-N-(2-hydroxyethyl)-1-methyl-1H-benzo[d]imidazole-5-carboxamide]
41-52	–	Cl.Cn1c(Nc2nc3ccccc3o2)nc2cc(C(=O)NCCN)ccc21 [Example 18, N-(2-aminoethyl)-2-(benzo[d]oxazol-2-ylamino)-1-methyl-1H-benzo[d]imidazole-5-carboxamide hydrochloride]
14-26	–	CN(C)CC(=O)NCCNC(=O)c1ccc2c(c1)nc(Nc1nc3ccccc3o1)n2C [Example 19, 2-(benzo[d]oxazol-2-ylamino)-N-(2-(2-(dimethylamino)acetamido)ethyl)-1-methyl-1H-benzo[d]imidazole-5-carboxamide]
8	–	Cn1c(Nc2nc3ccccc3o2)nc2cc(C(=O)NCCN3CCOCC3)ccc21 [Example 20, 2-(benzo[d]oxazol-2-ylamino)-1-methyl-N-(2-morpholinoethyl)-1H-benzo[d]imidazole-5-carboxamide]
14	–	CN(C)CCNC(=O)c1ccc2c(c1)nc(Nc1nc3ccccc3o1)n2C [Example 21, 2-(benzo[d]oxazol-2-ylamino)-N-(2-(dimethylamino)ethyl)-1-methyl-1H-benzo[d]imidazole-5-carboxamide]
25-61	–	CC(O)CNC(=O)c1ccc2c(c1)nc(Nc1nc3ccccc3o1)n2C (centres unmarked) [Example 23, 2-(benzo[d]oxazol-2-ylamino)-N-(2-hydroxypropyl)-1-methyl-1H-benzo[d]imidazole-5-carboxamide]
49	–	Cn1c(Nc2nc3ccccc3o2)nc2cc(C(=O)NCC(O)CO)ccc21 (centres unmarked) [Example 24, 2-(benzo[d]oxazol-2-ylamino)-N-(2,3-dihydroxypropyl)-1-methyl-1H-benzo[d]imidazole-5-carboxamide]
26	–	CC(O)COCCNC(=O)c1ccc2c(c1)nc(Nc1nc3ccccc3o1)n2C (centres unmarked) [Example 25]
26	–	Cn1c(Nc2nc3ccccc3o2)nc2cc(C(=O)NCC3(O)COC3)ccc21 [Example 26, 2-(benzo[d]oxazol-2-ylamino)-N-((3-hydroxyoxetan-3-yl)methyl)-1-methyl-1H-benzo[d]imidazole-5-carboxamide]
17	–	Cn1c(Nc2nc3ccccc3o2)nc2cc(C(=O)NCCOCC(C)(C)O)ccc21 [Example 27, 2-(benzo[d]oxazol-2-ylamino)-N-(2-(2-hydroxy-2-methylpropoxy)ethyl)-1-methyl-1H-benzo[d]imidazole-5-carboxamide]
